These results are taken from US6380238B1, “Indoline derivatives as 5-HT2B and or 5-HTC receptor ligands” (Vernalis Research Limited, priority 1998, dated 2002).

Data set [1] deals with T1, 5-HT2A receptor (Homo sapiens, UniProt P28223). Kind of data set: Binding to 5-HT2A receptor, [125I]-DOI radioligand, CHO cell line. Also noted: expressed in transfected cells; host or cells: CHO cell line. How it is done:
(§1) 1. Binding to Serotonin Receptors
(§2) The binding of compounds of formula (I) to serotonin receptors was determined in vitro by standard methods. The preparations were investigated in accordance with the assays given hereinafter.
Method (c): For the binding to the 5-HT2A receptor the 5-HT2A receptors were radiolabeled with [^125I]-DOI. The affinity of the compounds for 5-HT2A receptors in a CHO cell line was determined according to the procedure of D. J. McKenna and S. J. Peroutka, J. Neurosci., 1989, 9, 3482-90.

The subject of another data set is 5-HT2C syndrome. Kind of data set: 5-HT2C syndrome in rats (splayed limbs, hunched posture, retro-pulsion). The conditions noted are these: 30 mg/kg s.c. The format is in vivo. How it is done:
The efficacy of 5-HT2C agonists was assessed for ability to induce a specific syndrome.
The 5-HT2C syndrome is a rapid screening method to assess the in vivo efficacy of 5-HT2C agonists through their ability to induce three specific behaviours in rats. The animals are dosed with either a positive control (mCPP), test compound or vehicle, either sub-cutaneously or p.o. The animals are observed on an open bench, typically 30, 60 and 180 minutes and the degree of syndrome is assessed over a two minute period on a scale of 0-3 depending on the presence and severity of splayed limbs, hunched posture and retro-pulsion, the three specific behaviours which constitute the syndrome. Data is analysed using Kruskal-Wallis Analysis of Variance followed with appropriate post-hoc tests. All statistical analysis are conducted using Excel version 7.0 (Microsoft Corp.) and Statistica version 5.0 (Statsoft, Inc.).

The target in the next data set is T2, human 5-HT2B receptors (Homo sapiens, UniProt P41595).
T2 construct: expressed in transfected cells; host or cells: CHO cell line
Kind of data set: Binding to 5-HT2B receptor, [3H]-5-HT radioligand, CHO cell line. The procedure: as §1, §2
Method (b): For the binding to the 5-HT2B receptor the 5-HT2B receptors were radiolabeled with [^3H]-5-HT. The affinity of the compounds for human 5-HT2B receptors in a CHO cell line was determined according to the procedure of K. Schmnuck, C. Ullmer, P. Engels and H. Lubbert, FEBS Lett., 1994, 342, 85-90.

For data set [2], the target named is T3, 5-HT2C receptor (Homo sapiens, UniProt P28335).
T3 sequence (P28335 33-458): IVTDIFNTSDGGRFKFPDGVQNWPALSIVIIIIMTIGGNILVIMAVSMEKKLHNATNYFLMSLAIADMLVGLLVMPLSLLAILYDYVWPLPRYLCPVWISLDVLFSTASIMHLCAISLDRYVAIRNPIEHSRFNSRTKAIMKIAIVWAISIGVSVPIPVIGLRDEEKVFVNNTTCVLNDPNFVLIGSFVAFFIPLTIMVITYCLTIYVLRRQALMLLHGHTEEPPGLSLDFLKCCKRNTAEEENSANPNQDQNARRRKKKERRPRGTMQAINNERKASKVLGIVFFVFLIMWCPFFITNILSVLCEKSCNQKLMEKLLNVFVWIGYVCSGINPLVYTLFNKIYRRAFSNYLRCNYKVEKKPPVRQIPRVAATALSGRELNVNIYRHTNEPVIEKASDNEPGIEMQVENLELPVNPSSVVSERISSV
Kind of data set: Binding to 5-HT2C receptor, [3H]-5-HT radioligand, CHO cell line. Also noted: expressed in transfected cells; host or cells: CHO cell line. How it is done:
as §1, §2
Method (a): For the binding to the 5-HT2C receptor the 5-HT2C receptors were radiolabeled with [^3H]-5-HT. The affinity of the compounds for 5-HT2C receptors in a CHO cell line was determined according to the procedure of D. Hoyer, G. Engel and H. O. Kalkman, European J. Pharmacol., 1985, 118, 13-23.

Data set [3] deals with T1, 5-HT2A receptor. Kind of data set: Functional activity, FLIPR calcium assay in CHO cells expressing human 5-HT2A. In kind it is cell-based. Details: expressed in transfected cells; host or cells: CHO cells. The conditions noted are these: for Emax: CHO, read-out: h5-HT2A Relative Efficacy (%). The procedure:
(§3) The functional activity of compounds of formula (I) was assayed using a Fluorimetric Imaging Plate reader (FLIPR). CHO cells expressing the human 5-HT2C or human 5-HT2A receptors were counted and plated into standard 96 well microtitre plates on the day before testing to give a confluent monolayer. The cells were then dye loaded with the calcium sensitive dye, Fluo-3-AM. Unincorporated dye was removed using an automated cell washer to leave a total volume of 100 μL/well of assay buffer (Hanks balanced salt solution containing 20 mM Hepes and 2.5 mM probenecid). The drug (dissolved in 50 μL of the assay buffer) was added at a rate of 70 μL/sec to each well of the FLIPR 96 well plate during fluorescence measurements. The measurements were taken at 1 sec intervals and the maximum fluorescent signal was measured (approx 10-15 secs after drug addition) and compared with the response produced by 10 μM 5-HT (defined as 100%) to which it was expressed as a percentage response (relative efficacy). Dose response curves were constructed using Graphpad Prism (Graph Software Inc.).

Data set [4] addresses T3, 5-HT2C receptor. Kind of data set: Functional activity, FLIPR calcium assay in CHO cells expressing human 5-HT2C. Details: expressed in transfected cells; host or cells: CHO cells. In kind it is cell-based. The following applies: for Emax: CHO, read-out: h5-HT2C Relative Efficacy (%). How it is done: as §3
The conditions of data set [5]: cited from earlier work.
For data set [6], the system named is 5-HT2C receptor. The conditions noted are these: cited from earlier work.
The conditions of data set [7]: cited from earlier work. The source holds these as a separate data set.
Where [8] appears, read: [125I]-DOI, CHO cell line, read-out: Ki (2A).
The mark [9] stands for this setting: FLIPR, CHO cells, Fluo-3-AM, read-out: h5-HT2A EC50.
Where [10] appears, read: [3H]-5-HT, human receptor, CHO cell line, read-out: Ki (2B).
The mark [11] stands for this setting: [3H]-5-HT, CHO cell line, read-out: Ki (2C).
The mark [12] stands for this setting: FLIPR, CHO cells, Fluo-3-AM, read-out: h5-HT2C EC50.

Each structure is given as a SMILES string. Where a name gives a salt, the structure may show the parent alone. Read-outs that look alike come from different tables or passages of the source.

T2 sequence (P41595 whole entry): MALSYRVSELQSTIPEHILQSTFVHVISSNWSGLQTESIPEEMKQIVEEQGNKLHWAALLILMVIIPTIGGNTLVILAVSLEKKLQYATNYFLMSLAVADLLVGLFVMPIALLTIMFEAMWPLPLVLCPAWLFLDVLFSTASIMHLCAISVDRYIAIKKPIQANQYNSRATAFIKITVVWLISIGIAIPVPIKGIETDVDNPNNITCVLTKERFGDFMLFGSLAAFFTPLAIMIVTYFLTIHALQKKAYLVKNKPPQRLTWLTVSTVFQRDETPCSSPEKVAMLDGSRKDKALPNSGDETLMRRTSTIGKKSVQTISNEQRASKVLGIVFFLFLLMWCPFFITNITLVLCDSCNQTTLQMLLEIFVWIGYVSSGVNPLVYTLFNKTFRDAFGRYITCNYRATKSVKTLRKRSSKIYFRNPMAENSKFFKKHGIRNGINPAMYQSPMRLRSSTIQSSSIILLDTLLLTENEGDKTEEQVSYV
T1 sequence (P28223 whole entry): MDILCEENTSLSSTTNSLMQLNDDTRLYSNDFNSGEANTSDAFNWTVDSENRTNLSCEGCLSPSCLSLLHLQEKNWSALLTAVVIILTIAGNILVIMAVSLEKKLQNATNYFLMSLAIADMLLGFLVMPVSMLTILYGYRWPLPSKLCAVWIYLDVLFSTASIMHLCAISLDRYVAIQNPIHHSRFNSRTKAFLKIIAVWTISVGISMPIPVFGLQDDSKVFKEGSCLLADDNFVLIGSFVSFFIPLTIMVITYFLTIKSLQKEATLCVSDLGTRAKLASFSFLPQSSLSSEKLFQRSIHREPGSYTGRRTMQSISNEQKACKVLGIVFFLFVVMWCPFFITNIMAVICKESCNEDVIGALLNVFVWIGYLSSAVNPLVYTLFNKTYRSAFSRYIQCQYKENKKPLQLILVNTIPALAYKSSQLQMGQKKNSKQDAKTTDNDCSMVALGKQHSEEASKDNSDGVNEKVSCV

Usually melting point stands for the temperature, or range, at which the solid turns liquid. Take `CC(N)CN1CCc2ccc(Cl)cc21` (racemic) (as salt: hydrochloride) [Example 1, (RS)-1-(6-Chloroindolin-1-yl)-2-propylamine Hydrochloride]: the melting point was 262 °C.
Regarding `COc1ccc2c(c1)N(CC(C)N)CC2` (racemic) (as salt: hydrochloride) [Example 2, (RS)-1-(6-Methoxyindolin-1-yl)-2-propylamine Hydrochloride], the melting point lay in the range of 142 to 143 °C.
A word on the Ki: it is the equilibrium dissociation constant of an inhibitor or competing ligand from its target. On to `CC(N)CN1CCc2ccc(Cl)cc21` (racemic) [Example 1, (RS)-1-(6-Chloroindolin-1-yl)-2-propylamine Hydrochloride], for which the inhibition constant (Ki) worked out at 405 nM on 5-HT2A receptor [1], 113 nM on human 5-HT2B receptors and 357 nM on 5-HT2C receptor [2]. Besides, the “time for which significant pharmacological efficacy is maintained (5-HT2C syndrome)” value in the data set with 5-HT2C syndrome was “at least 180 minutes”.
The EC50 is the concentration needed to bring the measured effect to its halfway point. For `C[C@H](N)CN1CCc2ccc(Cl)cc21` [Example 10, (S)-1-(6-Chloroindolin-1-yl)-2-propylamine Fumarate], the inhibition constant Ki at 5-HT2A receptor [1] was 252 nM; at human 5-HT2B receptors, 138 nM; at 5-HT2C receptor [2], 55 nM. Besides, the values for the concentration for a half-maximal effect (EC50) on 5-HT2A receptor [3] and on 5-HT2C receptor [4] were 2210 nM and 125 nM, respectively. Further, the figures for the Emax on 5-HT2A receptor [3] and at 5-HT2C receptor [4] were 49% and 62%, respectively.
Regarding `C[C@H](N)CN1CCc2ccc(Br)cc21` [Example 12], the Ki stood at 1090 nM on 5-HT2A receptor [1], 42 nM at human 5-HT2B receptors and 77 nM at 5-HT2C receptor [2]. The results for the EC50 on 5-HT2A receptor [3] and on 5-HT2C receptor [4] were 2410 nM and 230 nM, respectively. The Emax is 49% on 5-HT2A receptor [3] and 59% on 5-HT2C receptor [4].
Take `COc1ccc2c(c1)N(C[C@H](C)N)CC2` [Example 13]: the results for the inhibitory constant (Ki) on 5-HT2A receptor [1], on human 5-HT2B receptors and at 5-HT2C receptor [2] were 461 nM, 175 nM and 122 nM, respectively. Besides, the EC50 was 386 nM on 5-HT2A receptor [3] and 75 nM on 5-HT2C receptor [4]. Further, the Emax on 5-HT2A receptor [3] was determined as 72%; at 5-HT2C receptor [4], 74%.
As to `C[C@H](N)CN1CCc2cc(F)c(F)cc21` [Example 22], the figures for the inhibitory constant (Ki) at 5-HT2A receptor [1], at human 5-HT2B receptors and on 5-HT2C receptor [2] were 325 nM, 92 nM and 260 nM, respectively. Moreover, the results for the half-maximal effective concentration (EC50) at 5-HT2A receptor [3] and at 5-HT2C receptor [4] were 2570 nM and 83 nM, respectively. In addition, the Emax at 5-HT2A receptor [3] amounted to 57%; at 5-HT2C receptor [4], 87%.
In the case of `C[C@H](N)CN1CCc2ccc(C(F)(F)F)cc21` [Example 24], the results for the inhibition constant (Ki) on 5-HT2A receptor [1], on human 5-HT2B receptors and on 5-HT2C receptor [2] were 1870 nM, 148 nM and 235 nM, respectively. Besides, the concentration giving a half-maximal response (EC50) at 5-HT2A receptor [3] came out at 3650 nM; at 5-HT2C receptor [4] it was 131 nM. Moreover, the Emax on 5-HT2A receptor [3] amounted to 33%; at 5-HT2C receptor [4], 72%.
As to `C[C@H](N)CN1CCc2cc(F)c(Br)cc21` [Example 25], the inhibition constant Ki on 5-HT2A receptor [1] came to 156 nM; at human 5-HT2B receptors, 22 nM; on 5-HT2C receptor [2], 63 nM. Further, the EC50 at 5-HT2A receptor [3] stood at 1240 nM; at 5-HT2C receptor [4], 21 nM. In addition, the Emax at 5-HT2A receptor [3] amounted to 57%; at 5-HT2C receptor [4], 81%.
Consider `C[C@@H](N)CN1CCc2ccc(C(F)(F)F)cc21` [Example 26], for which the results for the inhibition constant (Ki) at 5-HT2A receptor [1], on human 5-HT2B receptors and on 5-HT2C receptor [2] were 1260 nM, 761 nM and 1160 nM, respectively.
As to `NCCN1CCc2ccc(Br)cc21` [Example 50, 2-(6-Bromoindolin-1-yl)-1-ethylamine Fumarate], the inhibition constant (Ki) at 5-HT2A receptor [1] (setting [8]) is 332 nM; at human 5-HT2B receptors (setting [10]), 159 nM; at 5-HT2C receptor [2] (setting [11]) it was 61 nM. Also, the results for the Emax at 5-HT2A receptor [3] and on 5-HT2C receptor [4] were 25% and 78%, respectively. Further, the 50% effective concentration (EC50) turned out to be 4080 nM on 5-HT2A receptor [3] (setting [9]) and 38 nM on 5-HT2C receptor [4] (setting [12]).
Consider `NCCN1CCc2ccc(Cl)cc21` [Example 51, 2-(6-Chloroindolin-1-yl)-1-ethylamine Fumarate], for which the figures for the inhibitory constant (Ki) on 5-HT2A receptor [1] (setting [8]), at human 5-HT2B receptors (setting [10]) and at 5-HT2C receptor [2] (setting [11]) were 1110 nM, 140 nM and 165 nM, respectively. In addition, the Emax at 5-HT2A receptor [3] is 45%; at 5-HT2C receptor [4], 88%. The concentration for a half-maximal effect (EC50) at 5-HT2A receptor [3] (setting [9]) was 1890 nM; on 5-HT2C receptor [4] (setting [12]), 36 nM.
With `Clc1cccc(N2CCNCC2)c1` [mCPP, m-chlorophenylpiperazine], the “appearance of the behavioural satiety sequence” value in data set [5] (rat, in vivo) is “accelerate the appearance of the behavioural satiety sequence”. In addition, the “food intake in rats” value in data set [5] (rats) was “reduce food intake”. The “anorectic action in 5-HT2C receptor knockout mutant mice” value in the data set on 5-HT2C receptor [6] is given as “absent”. In addition, in data set [7] (obese male and female subjects, subchronic treatment for a 14 day period), the “appetite and body weight of obese subjects” value was “decreased the appetite and body weight”. Further, the “food intake in female volunteers” value in [7] (single dose, female volunteers) is reported as “decreased food intake”.
